# Data taken from ChEMBL document CHEMBL6071211, “Invention of VH-937, a Potent HIV-1 Maturation Inhibitor with the Potential for Infrequent Oral Dosing in Humans” (ACS Med Chem Lett, 2024).
# Experiments:
# [1] = Clearance in mouse at 1 mg/kg, iv; type: ADME, organism-based; settings: in vivo
# [2] = tested on: Human immunodeficiency virus 1; assay: In vitro antiviral activity against fully replicating pseudotype HIV1 harboring Gag V3621/V370A mutant assessed as maximum percent inhibition by single cycle assay relative to control; type: functional
# [3] = tested on: Human immunodeficiency virus 1; assay: Ratio of EC50 for antiviral activity against fully replicating HIV1 harboring Gag A364V mutant by multicycle assay to EC50 for antiviral activity against fully replicating wild type HIV1 NLRepRluc-P373S by multicycle assay; type: functional
# [4] = tested on: Human immunodeficiency virus 1; assay: In vitro antiviral activity against HIV1 subtype A clinical isolate UG275; type: functional, organism-based; settings: Human immunodeficiency virus 1, UG275
# [5] = biological target: T1, Cytochrome P450 2B6 (Homo sapiens, UniProt P20813); assay: Inhibition of CYP2B6 (unknown origin); type: ADME
# T1 sequence (P20813 whole entry): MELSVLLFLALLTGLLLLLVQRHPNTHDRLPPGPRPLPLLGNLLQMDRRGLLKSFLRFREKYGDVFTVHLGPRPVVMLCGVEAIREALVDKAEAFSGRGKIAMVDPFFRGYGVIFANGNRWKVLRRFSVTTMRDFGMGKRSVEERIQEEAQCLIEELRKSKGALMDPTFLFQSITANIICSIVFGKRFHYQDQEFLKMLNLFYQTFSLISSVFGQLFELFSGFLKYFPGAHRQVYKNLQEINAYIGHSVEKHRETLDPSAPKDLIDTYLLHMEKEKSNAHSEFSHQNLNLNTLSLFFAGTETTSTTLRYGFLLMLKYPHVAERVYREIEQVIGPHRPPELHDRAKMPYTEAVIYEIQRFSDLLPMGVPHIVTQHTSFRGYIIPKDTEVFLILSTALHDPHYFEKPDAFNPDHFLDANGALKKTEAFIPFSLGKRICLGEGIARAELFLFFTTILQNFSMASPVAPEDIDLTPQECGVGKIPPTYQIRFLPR
# [6] = tested on: Human immunodeficiency virus 1; assay: In vitro antiviral activity against fully replicating pseudotype HIV1 harboring Gag T332S/[…]/prR41G mutant by single cycle assay; type: functional, organism-based
# [7] = tested on: Human immunodeficiency virus 1; assay: In vitro antiviral activity against HIV1 subtype C clinical isolate 97ZA009; type: functional, organism-based; settings: Human immunodeficiency virus 1, 97ZA009
# [8] = biological target: Cytochrome P450 2D6 (Homo sapiens, UniProt P10635); assay: Inhibition of CYP2D6 (unknown origin); type: ADME
# [9] = tested on: Human immunodeficiency virus 1; assay: In vitro antiviral activity against fully replicating wild type HIV1 NL4-3; type: functional, organism-based; settings: Human immunodeficiency virus 1, NL4-3
# [10] = biological target: Cytochrome P450 2C9 (Homo sapiens, UniProt P11712); assay: Inhibition of CYP2C9 (unknown origin); type: ADME
# [11] = tested on: Human immunodeficiency virus 1; assay: In vitro antiviral activity against fully replicating wild type pseudotype HIV1 NLRepRluc-P373S by single cycle assay; type: functional, organism-based
# [12] = AUC (infinity) in Cynomolgus monkey at 2 mg/kg, iv; type: ADME, organism-based, Macaca fascicularis; settings: in vivo
# [13] = Metabolic stability in dog liver microsomes assessed as half life; type: ADME, Canis lupus familiaris, Microsome
# [14] = Half life in normal healthy human volunteers plasma at 10 mg for 15 days and followed by 30 mg; type: ADME, cell-free; settings: time 15 day
# [15] = tested on: Human immunodeficiency virus 1; assay: In vitro antiviral activity against fully replicating HIV1 harboring Gag T332S/[…]/prR41G mutant assessed as maximum percent inhibition by multicycle assay relative to control; type: functional
# [16] = Volume of distribution at steady state in mouse at 1 mg/kg, iv; type: ADME, organism-based; settings: in vivo, read-out: Vdss
# [17] = tested on: Human immunodeficiency virus 1; assay: In vitro antiviral activity against fully replicating HIV1 harboring Gag A364V mutant by multicycle assay; type: functional, organism-based
# Chain of Cytochrome P450 2C9 (P11712 whole entry): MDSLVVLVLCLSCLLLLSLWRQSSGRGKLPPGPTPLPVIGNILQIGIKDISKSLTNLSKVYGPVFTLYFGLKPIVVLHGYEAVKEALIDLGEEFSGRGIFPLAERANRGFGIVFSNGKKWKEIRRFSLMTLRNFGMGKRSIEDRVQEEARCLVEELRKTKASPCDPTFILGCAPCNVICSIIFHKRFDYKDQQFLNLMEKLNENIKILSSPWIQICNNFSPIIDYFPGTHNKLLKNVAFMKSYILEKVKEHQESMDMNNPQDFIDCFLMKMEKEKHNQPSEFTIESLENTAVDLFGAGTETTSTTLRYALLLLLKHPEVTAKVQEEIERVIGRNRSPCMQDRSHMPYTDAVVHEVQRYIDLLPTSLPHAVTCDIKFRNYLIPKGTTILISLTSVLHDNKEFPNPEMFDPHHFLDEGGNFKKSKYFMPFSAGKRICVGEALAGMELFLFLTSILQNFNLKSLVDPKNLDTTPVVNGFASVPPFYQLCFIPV
# Chain of Cytochrome P450 2D6 (P10635 whole entry): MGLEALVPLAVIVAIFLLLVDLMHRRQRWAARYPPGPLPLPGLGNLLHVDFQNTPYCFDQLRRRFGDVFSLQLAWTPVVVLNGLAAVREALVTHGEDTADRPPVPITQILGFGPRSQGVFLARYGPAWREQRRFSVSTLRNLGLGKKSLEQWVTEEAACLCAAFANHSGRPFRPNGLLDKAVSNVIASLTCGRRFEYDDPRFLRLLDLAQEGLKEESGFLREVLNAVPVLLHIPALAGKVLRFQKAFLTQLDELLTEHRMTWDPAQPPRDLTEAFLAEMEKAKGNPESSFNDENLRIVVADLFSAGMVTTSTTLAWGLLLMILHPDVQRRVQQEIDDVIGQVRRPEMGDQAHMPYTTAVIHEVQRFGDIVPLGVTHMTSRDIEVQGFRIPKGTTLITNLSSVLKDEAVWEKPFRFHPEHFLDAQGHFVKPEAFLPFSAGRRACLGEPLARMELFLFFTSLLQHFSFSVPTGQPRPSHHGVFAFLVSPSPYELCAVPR
structure (smiles),measurement,setting,value
C=C(C)[C@@H]1CC[C@]2(NCCN3CCS(=O)(=O)CC3)CC[C@]3(C)[C@H](CC[C@@H]4[C@@]5(C)CC=C(C6=CC[C@](COc7ncccc7C#N)(C(=O)O)CC6)C(C)(C)[C@@H]5CC[C@]43C)[C@@H]12,clearance,[1],0.63 mL/min/kg
same,Imax,[2],98%
same,Ratio EC50,[3],2.5
same,EC50,[4],2 nM
same,IC50,[5],> 4400 nM
same,EC50,[6],24 nM
same,EC50,[7],5 nM
same,IC50,[8],> 4400 nM
same,EC50,[9],1.8 nM
same,IC50,[10],> 4400 nM
same,EC50,[11],5 nM
same,AUC(0-inf),[12],65.5 µM·h
same,half-life,[13],> 2 h
same,half-life,[14],67 h
same,Imax,[15],98%
same,Vd,[16],0.53 L/kg
same,EC50,[17],5 nM
